Measured values as given in patent US6509329B1, “Cyclic diamine compound with 6-membered ring groups” (Kowa Co., Ltd., priority 2001, dated 2003).
Where two headings read alike, the source gives them in different places.

Test system: adhesion of U937 cells to HUVEC stimulated by IL-1β or TNFα
Assay: Inhibitory effect on cell adhesion (U937 adhesion to stimulated HUVEC)
Assay type: cell-based
Conditions: Homo sapiens, compound at 1 μM, fluorescence-labeled U937 adhesion for 1 hour
Description: This test was conducted by reference to the method of Ross et al. (J. Biol. Chem., 267, 8537-8543 (1992)). More specifically, after human umbilical venous endothelial cells (HUVEC) were cultured on a 48-well plate to confluent growth, IL−1β or TNFα was added thereto. Upon elapsed time of 5 hours after the addition, U937, which is a human monocytic/histocytic cell fluorescence-labeled with PKH2 (product of Dainippon Pharmaceutical Co., Ltd.), was added in a proportion of 1×10^6 cells per well. After the plate was left at rest at room temperature for 1 hour, unadhered U937 was washed out and lysed in 1% Triton X-100 to measure a remaining fluorescence intensity (excitation wavelength: 480 nm; measuring wavelength: 530 nm). HUVEC and U937 were cultured in EGM-2 (product of Sanko Junyaku K.K.) and 10% FCS-containing RPMI1640, respectively. Each test agent was added to HUVEC upon the addition of IL-1β or TNFα and to U937 24 hours prior to the cell adhesion test. The inhibitory activity was calculated out according to the equation [100−(C−B)/(A−B)×100 (%)], wherein A is the number of U937 cells adhered to HUVEC stimulated by IL−1β or TNFα when no test agent was added, B is the number of U937 cells adhered to HUVEC not stimulated by IL-1β or TNFα when no test agent was added, and C is the number of U937 cells adhered to HUVEC stimulated by ILβ or TNFα when the test agent was added. As control compounds, Test Compound 1 described in Japanese Patent Application Laid-Open No. 9-143075 and dilazep described in Japanese Patent Application Laid-Open No. 11-92382 were simultaneously evaluated.

[1] = HUVEC stimulated by IL-1β for 5 hours, read-out: Percent inhibition (%) of cell adhesion, Stimulation by IL-1β
[2] = HUVEC stimulated by TNFα for 5 hours, read-out: Percent inhibition (%) of cell adhesion, Stimulation by TNFα

Question: With `COc1cc(C(=O)OCCCN2CCCN(CCCOC(=O)c3cc(OC)c(OC)c(OC)c3)CC2)cc(OC)c1OC` [Dilazep, dilazep, reference compound] as the molecule, how does the inhibition at 1 µM [1] read?
Answer: Its inhibition at 1 µM is 0%.

Question: What about the inhibition at 1 µM [2] of the same molecule?
Answer: The inhibition at 1 µM was 12%.

Question: Which inhibition at 1 µM [1] does the source give for `COc1cc(-c2cccc(CN3CCCN(Cc4cccc(-c5cc(OC)c(OC)c(OC)c5)c4)CC3)c2)cc(OC)c1OC` [Example 4, N,N′-bis[3-(3,4,5-Trimethoxyphenyl)benzyl]-homopiperazine] here?
Answer: Its inhibition at 1 µM is 42%.

Question: What about the inhibition at 1 µM [2] of the same molecule?
Answer: The inhibition at 1 µM was 43%.

Question: Which results are given for `COc1cc(-c2cc(CN3CCN(Cc4ccnc(-c5cc(OC)c(OC)c(OC)c5)c4)CC3)ccn2)cc(OC)c1OC` [Example 9, N,N′-bis[[2-(3,4,5-Trimethoxyphenyl)pyridin-4-yl]methyl]piperazine]?
Answer: inhibition at 1 µM [1]: 53%; inhibition at 1 µM [2]: 64%

Question: How did the inhibition at 1 µM [1] turn out when `COc1cc(-c2cc(CN3CCCN(Cc4ccnc(-c5cc(OC)c(OC)c(OC)c5)c4)CC3)ccn2)cc(OC)c1OC` [Example 10, N,N′-bis[[2-(3,4,5-Trimethoxyphenyl)pyridin-4-yl]methyl]homopiperazine] was run?
Answer: Its inhibition at 1 µM is 63%.

Question: What about the inhibition at 1 µM [2] of the same molecule?
Answer: The inhibition at 1 µM was 71%.

Question: Which results are given for `COc1cc(C#Cc2cc(CN3CCN(Cc4ccnc(C#Cc5cc(OC)c(OC)c(OC)c5)c4)CC3)ccn2)cc(OC)c1OC` [Example 22, N,N′-bis[[2-(3,4,5-Trimethoxyphenylethynyl)-pyridin-4-yl]methyl]piperazine]?
Answer: inhibition at 1 µM [1]: 34%; inhibition at 1 µM [2]: 50%
